Assay results as given in PMC11791039, “A split intein and split luciferase-coupled system for detecting protein-protein interactions” (Molecular Systems Biology, 2024).
Where “and” joins values, the source holds several entries; their conditions need not be identical. Equal entries are not always repeated.

How the values were obtained:
Assay type in all cases: cell-based
EGFR(L858R)/SHC1 = target: T1, EGFR(L858R)/SHC1 (Homo sapiens, UniProt P00533, L858R); assay: SIMPL2 assay EGFR(L858R)/SHC1; conditions: for SIMPL2 signal, L858R (Fig. 3D): replicates 1-4
T1 construct: β10-IN (tNLuc β10 peptide + GP41-1 split intein N fragment) (C); V5; expressed in transfected cells

EGFR(WT)/SHC1 = target: T2, EGFR(WT)/SHC1 (Homo sapiens, UniProt P00533); assay: SIMPL2 assay EGFR(WT)/SHC1; conditions: for SIMPL2 signal, WT (Fig. 3D): replicates 1-4
T2 construct: β10-IN (tNLuc β10 peptide + GP41-1 split intein N fragment) (C); V5; expressed in transfected cells

MDM2/MDM4 interaction = target: T3, MDM2/MDM4 interaction (Homo sapiens, UniProt O15151+Q00987); assay: SIMPL2 assay MDM2/MDM4; conditions: for SIMPL2 signal, MDM2/MDM4 (Fig. 4A): replicates 1-4
T3 construct: β10-IN (tNLuc β10 peptide + GP41-1 split intein N fragment) (C); V5; IC-β9 (GP41-1 split intein C fragment + tNLuc β9 peptide) (N); FLAG; expressed in transfected cells
T3 sequence (Q00987 whole entry, the tested form may be a part): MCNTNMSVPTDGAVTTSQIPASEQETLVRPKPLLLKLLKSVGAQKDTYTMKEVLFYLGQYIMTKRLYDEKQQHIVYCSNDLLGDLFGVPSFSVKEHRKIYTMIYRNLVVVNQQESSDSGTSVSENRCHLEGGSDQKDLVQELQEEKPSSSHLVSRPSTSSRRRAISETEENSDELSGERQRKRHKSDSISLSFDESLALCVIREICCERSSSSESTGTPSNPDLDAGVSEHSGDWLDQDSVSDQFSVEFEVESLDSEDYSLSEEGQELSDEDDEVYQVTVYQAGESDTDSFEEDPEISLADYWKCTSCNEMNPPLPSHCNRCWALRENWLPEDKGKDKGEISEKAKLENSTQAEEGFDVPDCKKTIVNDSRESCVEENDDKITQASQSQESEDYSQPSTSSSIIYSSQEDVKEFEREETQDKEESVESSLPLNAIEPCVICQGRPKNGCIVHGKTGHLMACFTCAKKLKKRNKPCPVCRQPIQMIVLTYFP
T3 sequence (O15151 whole entry, the tested form may be a part): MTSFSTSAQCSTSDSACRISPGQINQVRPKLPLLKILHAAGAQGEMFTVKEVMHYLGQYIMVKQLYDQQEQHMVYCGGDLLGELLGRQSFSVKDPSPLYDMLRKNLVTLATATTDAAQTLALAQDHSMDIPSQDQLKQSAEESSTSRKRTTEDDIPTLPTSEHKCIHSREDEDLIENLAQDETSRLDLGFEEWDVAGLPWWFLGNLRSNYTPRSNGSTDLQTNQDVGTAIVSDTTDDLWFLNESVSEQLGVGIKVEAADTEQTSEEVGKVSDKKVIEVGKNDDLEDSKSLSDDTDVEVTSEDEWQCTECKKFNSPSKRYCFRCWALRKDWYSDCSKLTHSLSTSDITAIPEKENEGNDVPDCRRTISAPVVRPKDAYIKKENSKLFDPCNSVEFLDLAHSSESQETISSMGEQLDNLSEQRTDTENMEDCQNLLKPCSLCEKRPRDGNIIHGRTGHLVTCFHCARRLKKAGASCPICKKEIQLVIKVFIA
Experimental: We next tested the system with molecular glues, which are small molecule compounds that induce target protein interaction. […] To clarify, the two protein molecules are anchored together through a pair of dimerized RO-5963 molecules. […] Therefore, its binding kinetics display a monophasic change.
Figure 4 Evaluation of SIMPL2 as a drug discovery tool using molecular glue and PROTACs. […] Samples were measured and normalized as described in Materials and Methods. […] The cells were then subjected to SIMPL2 luciferase measurement, and the raw values are plotted.
Stable cells of target protein pair were created using Cas9 CRISPR. To characterize PPI modulators, the cells were seeded in 384 well plate (10,000 cells/well) and incubated for 5 h. […] Average signal of wells without either deoxycycline or compound treatment was used as blank or ‘floor’ signal (SF). The average signal of wells with deoxycycline treatment but without compound treatment was used as maximal interaction or ‘ceiling’ (SC). SIMPL2 reading of each sample (Ssample) was normalized according to the formula S^*sample = (Ssample– SF)/(SC– SF) x 100%, in which S^*sample stands for normalized signal. The normalized data of inhibitor experiments were fitted into a four-parameter inhibitor-response model.

control = target: T4, control (Homo sapiens, UniProt P01116, G12C); assay: SIMPL2 assay, control of Fig. 3B-D; conditions: replicates 1-4
T4 construct: IC-β9 (GP41-1 split intein C fragment + tNLuc β9 peptide) (N); FLAG; expressed in transfected cells
T4 sequence (P01116 1-185 isoform P01116-2 G12C limits assumed): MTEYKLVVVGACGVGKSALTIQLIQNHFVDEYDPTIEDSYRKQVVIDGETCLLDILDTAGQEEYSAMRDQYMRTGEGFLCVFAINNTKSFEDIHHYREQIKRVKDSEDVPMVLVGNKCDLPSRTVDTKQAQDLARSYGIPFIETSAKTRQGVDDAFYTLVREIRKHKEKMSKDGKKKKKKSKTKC

## Cn1cnc2c(F)c(Nc3ccc(Br)cc3Cl)c(C(=O)NOCCO)cc21 [selumetinib, Selumetinib]
EGFR(L858R)/SHC1; AZD6244 6.4e-6 uM
  SIMPL2 signal, L858R (Fig. 3D): 107.975 and 92.9525 and 107.024 and 103.355
EGFR(L858R)/SHC1; AZD6244 3.2e-5 uM
  SIMPL2 signal, L858R (Fig. 3D): 88.2795 and 92.9261 and 92.1077 and 96.4375
EGFR(L858R)/SHC1; AZD6244 0.00016 uM
  SIMPL2 signal, L858R (Fig. 3D): 108.688 and 85.5073 and 82.6824 and 92.9525
EGFR(L858R)/SHC1; AZD6244 0.0008 uM
  SIMPL2 signal, L858R (Fig. 3D): 91.1572 and 94.7742 and 86.1145 and 84.24
EGFR(L858R)/SHC1; AZD6244 0.004 uM
  SIMPL2 signal, L858R (Fig. 3D): 85.9825 and 79.039 and 94.0877 and 83.58
EGFR(L858R)/SHC1; AZD6244 0.02 uM
  SIMPL2 signal, L858R (Fig. 3D): 89.8635 and 58.7628 and 116.819 and 92.2661
EGFR(L858R)/SHC1; AZD6244 0.1 uM
  SIMPL2 signal, L858R (Fig. 3D): 96.4375 and 99.3416 and 96.3319 and 106.18
EGFR(L858R)/SHC1; AZD6244 0.5 uM
  SIMPL2 signal, L858R (Fig. 3D): 85.5073 and 101.612 and 96.3583 and 99.632
EGFR(L858R)/SHC1; doxycycline + compound 16 h
  effect on EGFR(L858R)/SHC1 interaction signal: no effect
EGFR(WT)/SHC1; AZD6244 6.4e-6 uM
  SIMPL2 signal, WT (Fig. 3D): 117.981 and 128.314 and 91.3721 and 97.094
EGFR(WT)/SHC1; AZD6244 3.2e-5 uM
  SIMPL2 signal, WT (Fig. 3D): 96.8718 and 91.2055 and 86.3725 and 98.1494
EGFR(WT)/SHC1; AZD6244 0.00016 uM
  SIMPL2 signal, WT (Fig. 3D): 96.2607 and 97.2051 and 90.2055 and 118.204
EGFR(WT)/SHC1; AZD6244 0.0008 uM
  SIMPL2 signal, WT (Fig. 3D): 91.2055 and 95.2608 and 88.9279 and 100.427
EGFR(WT)/SHC1; AZD6244 0.004 uM
  SIMPL2 signal, WT (Fig. 3D): 91.5388 and 82.4283 and 71.7068 and 83.0949
EGFR(WT)/SHC1; AZD6244 0.02 uM
  SIMPL2 signal, WT (Fig. 3D): 79.8174 and 81.2062 and 88.8723 and 103.205
EGFR(WT)/SHC1; AZD6244 0.1 uM
  SIMPL2 signal, WT (Fig. 3D): 113.815 and 112.593 and 100.427 and 98.6494
EGFR(WT)/SHC1; AZD6244 0.5 uM
  SIMPL2 signal, WT (Fig. 3D): 103.76 and 101.094 and 97.3717 and 91.7054
EGFR(WT)/SHC1; doxycycline + compound 16 h
  inhibition of EGFR(WT)/SHC1 interaction signal: no effect
MDM2/MDM4 interaction; 16 h with doxycycline
  induction of MDM2/MDM4 interaction: not observed
MDM2/MDM4 interaction; AZD6244 0.013717 uM
  SIMPL2 signal, MDM2/MDM4 (Fig. 4A): 105.342 and 94.3499 and 91.2095 and 111.623
MDM2/MDM4 interaction; AZD6244 0.041152 uM
  SIMPL2 signal, MDM2/MDM4 (Fig. 4A): 84.4799 and 83.2835 and 83.9564 and 94.7238
MDM2/MDM4 interaction; AZD6244 0.37037 uM
  SIMPL2 signal, MDM2/MDM4 (Fig. 4A): 85.1528 and 73.4882 and 95.2472 and 81.3394
MDM2/MDM4 interaction; AZD6244 1.11111 uM
  SIMPL2 signal, MDM2/MDM4 (Fig. 4A): 73.7125 and 92.2563 and 82.1619 and 85.5267
MDM2/MDM4 interaction; AZD6244 3.33333 uM
  SIMPL2 signal, MDM2/MDM4 (Fig. 4A): 70.0486 and 88.8915 and 67.3568 and 90.3869
MDM2/MDM4 interaction; AZD6244 10 uM
  SIMPL2 signal, MDM2/MDM4 (Fig. 4A): 78.4232 and 90.5365 and 82.0123 and 90.6113
control; AZD6244 6.4e-6 uM
  SIMPL2 signal, control (Fig. 3D): 109.596 and 130.088
control; AZD6244 3.2e-5 uM
  SIMPL2 signal, control (Fig. 3D): 98.632 and 104.891 and 97.5584 and 100.637
control; AZD6244 0.00016 uM
  SIMPL2 signal, control (Fig. 3D): 97.4795 and 101.781 and 98.0162 and 96.0508
control; AZD6244 0.0008 uM
  SIMPL2 signal, control (Fig. 3D): 100.171 and 103.684 and 97.3453 and 101.418
control; AZD6244 0.004 uM
  SIMPL2 signal, control (Fig. 3D): 92.396 and 92.6013 and 98.3715
control; AZD6244 0.02 uM
  SIMPL2 signal, control (Fig. 3D): 95.5614
control; AZD6244 0.1 uM
  SIMPL2 signal, control (Fig. 3D): 91.3936 and 91.141
control; AZD6244 0.5 uM
  SIMPL2 signal, control (Fig. 3D): 89.4044
